Structures are written as SMILES.

For this assay, the target named is T1, FimH-CRD (Escherichia coli, UniProt P08191).
T1 construct: The first 177 amino acids of the FimH protein; thrombin tag (printed as 'fusion protein with thrombin') (cleaved yes); made in house; host or cells: bacteria (pET21b plasmid)
T1 sequence (P08191 22-177): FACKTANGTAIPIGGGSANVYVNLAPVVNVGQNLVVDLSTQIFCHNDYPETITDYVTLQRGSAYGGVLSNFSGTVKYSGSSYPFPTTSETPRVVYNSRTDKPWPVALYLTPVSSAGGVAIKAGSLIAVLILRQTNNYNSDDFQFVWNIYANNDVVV
Nature of the assay: Competitive binding assay by fluorescence polarization, assay 2 (compounds prepared by robotics, plates frozen and thawed). A digest of the protocol: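 Compounds at 0.4 nM–75 μM final (12 points, 3-fold steps, duplicate) compete with a 5 nM Alexa 647 mannoside probe for 60 nM FimH-CRD; 5 h room-temperature incubation in pH 7.0 Tris buffer with 2.5% DMSO, FP read-out, Kd from fitted curves. Assay 1 uses manual dilution, assay 2 robot-made frozen/thawed plates.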
By Kd is commonly meant a measure of binding affinity in units of concentration. With `CNC(=O)c1ccc(Oc2ccc(OC(F)(F)F)c([C@H]3O[C@H](CO)[C@@H](O)[C@H](O)[C@@H]3O)c2)cc1` [Compound 195, N-methyl-4-[4-(trifluoromethoxy)-3-[(2R,3S,4R,5S,6R)-3,4,5-trihydroxy-6-(hydroxymethyl)tetrahydropyran-2-yl]phenoxy]benzamide], binding was characterised by a dissociation constant (Kd) of 0.178 ± 0.0609 µM. The result for `CNC(=O)c1ccc(Oc2cc([C@H]3O[C@H](CO)[C@@H](O)[C@H](O)[C@@H]3O)ccc2F)cc1` [Compound 197, 4-[2-fluoro-5-[(2R,3S,4R,5S,6R)-3,4,5-trihydroxy-6-(hydroxymethyl)tetrahydropyran-2-yl]phenoxy]-N-methyl-benzamide] reads 0.0117 ± 0.0028 µM; that for `CNC(=O)c1ccc(Oc2cccc([C@H]3O[C@H](CO)[C@@H](O)[C@H](O)[C@@H]3O)c2F)cc1` [Compound 198, 4-[2-fluoro-3-[(2R,3S,4R,5S,6R)-3,4,5-trihydroxy-6-(hydroxymethyl)tetrahydropyran-2-yl]phenoxy]-N-methyl-benzamide], 0.0108 ± 0.0052 µM. `CNC(=O)c1ccc(Oc2cc(C)cc([C@H]3O[C@H](CO)[C@@H](O)[C@H](O)[C@@H]3O)c2)cc1` [Compound 199, N-methyl-4-[3-methyl-5-[(2R,3S,4R,5S,6R)-3,4,5-trihydroxy-6-(hydroxymethyl)tetrahydropyran-2-yl]phenoxy]benzamide] came in with a Kd of 0.0083 ± 0.0022 µM.

On to `CNC(=O)c1cccc(Oc2cccc([C@H]3O[C@H](CO)[C@@H](O)[C@H](O)[C@@H]3O)c2F)c1` [Compound 200, 3-[2-fluoro-3-[(2R,3S,4R,5S,6R)-3,4,5-trihydroxy-6-(hydroxymethyl)tetrahydropyran-2-yl]phenoxy]-N-methyl-benzamide], for which the Kd was 0.0084 ± 0.0008 µM.

In turn, `CNC(=O)c1cccc(Oc2ccc(OC(F)(F)F)c([C@H]3O[C@H](CO)[C@@H](O)[C@H](O)[C@@H]3O)c2)c1` [Compound 201, N-methyl-3-[4-(trifluoromethoxy)-3-[(2R,3S,4R,5S,6R)-3,4,5-trihydroxy-6-(hydroxymethyl)tetrahydropyran-2-yl]phenoxy]benzamide] registered a Kd of 0.103 ± 0.0018 µM.

In turn, `CNC(=O)c1cccc(Oc2ccc(F)c([C@H]3O[C@H](CO)[C@@H](O)[C@H](O)[C@@H]3O)c2)c1` [Compound 202, 3-[4-fluoro-3-[(2R,3S,4R,5S,6R)-3,4,5-trihydroxy-6-(hydroxymethyl)tetrahydropyran-2-yl]phenoxy]-N-methyl-benzamide] displayed a Kd of 0.0192 ± 0.0038 µM.

Compound `CNC(=O)c1cccc(Oc2cc([C@H]3O[C@H](CO)[C@@H](O)[C@H](O)[C@@H]3O)ccc2F)c1` [Compound 203, 3-[2-fluoro-5-[(2R,3S,4R,5S,6R)-3,4,5-trihydroxy-6-(hydroxymethyl)tetrahydropyran-2-yl]phenoxy]-N-methyl-benzamide] had a dissociation constant Kd of 0.0092 ± 0.0012 µM. Consider `CNC(=O)c1cccc(Oc2cc(C)cc([C@H]3O[C@H](CO)[C@@H](O)[C@H](O)[C@@H]3O)c2)c1` [Compound 204, N-methyl-3-[3-methyl-5-[(2R,3S,4R,5S,6R)-3,4,5-trihydroxy-6-(hydroxymethyl)tetrahydropyran-2-yl]phenoxy]benzamide], for which the affinity, expressed as Kd, was 0.0106 ± 0.0009 µM. The result for `OC[C@H]1O[C@H](c2ccc(Oc3ccccc3)cc2)[C@@H](O)[C@@H](O)[C@@H]1O` [Compound 205, (2R,3S,4R,5S,6R)-2-(hydroxymethyl)-6-(4-phenoxyphenyl)tetrahydropyran-3,4,5-triol] reads 0.0387 ± 0.0162 µM. Turning to `OC[C@H]1O[C@H](c2cccc(OCCF)c2)[C@@H](O)[C@@H](O)[C@@H]1O` [Compound 206, (2R,3S,4R,5S,6R)-2-[3-(2-fluoroethoxy)phenyl]-6-(hydroxymethyl)tetrahydropyran-3,4,5-triol], binding was characterised by a dissociation constant (Kd) of 0.0284 ± 0.0062 µM. For the compound `CCC(C)COc1cccc(C2O[C@H](CO)[C@@H](O)[C@H](O)[C@@H]2O)c1` (stereo partly drawn) [Compound 207], binding was put at a Kd of 0.0094 ± 0.0043 µM. `OC[C@H]1OC(c2cccc(OCCCCC(F)(F)F)c2)[C@@H](O)[C@@H](O)[C@@H]1O` (stereo partly drawn) [Compound 209] had a Kd of 0.0125 ± 0.0053 µM. In turn, `OC[C@H]1OC(c2cccc(OCC3CCO3)c2)[C@@H](O)[C@@H](O)[C@@H]1O` (stereo partly drawn) [Compound 210] gave a Kd of 0.0242 ± 0.0013 µM.

As for `COC(=O)c1ccc(COc2cccc(C3O[C@H](CO)[C@@H](O)[C@H](O)[C@@H]3O)c2)cc1` (stereo partly drawn) [Compound 211], the Kd was found to be 0.008 ± 0.0024 µM. For `CNC(=O)COc1cccc(C2O[C@H](CO)[C@@H](O)[C@H](O)[C@@H]2O)c1` (stereo partly drawn) [Compound 212], the Kd amounted to 0.0189 ± 0.0008 µM. Compound `OC[C@H]1OC(c2cccc(OCc3ccc(-n4cncn4)cc3)c2)[C@@H](O)[C@@H](O)[C@@H]1O` (stereo partly drawn) [Compound 213] had a Kd of 0.0093 ± 0.0005 µM. As for `CC1(COc2cccc(C3O[C@H](CO)[C@@H](O)[C@H](O)[C@@H]3O)c2)COC1` (stereo partly drawn) [Compound 214], the figure is 0.012 ± 0.0079 µM; as for `OC[C@H]1OC(c2cccc(OCC3CCCCC3)c2)[C@@H](O)[C@@H](O)[C@@H]1O` (stereo partly drawn) [Compound 215], 0.0131 ± 0.0039 µM. Regarding `OC[C@H]1OC(c2cccc(OCCC3CCCCC3)c2)[C@@H](O)[C@@H](O)[C@@H]1O` (stereo partly drawn) [Compound 216], binding was put at a Kd of 0.0164 ± 0.0052 µM. `OC[C@H]1OC(c2cccc(OCCCc3ccccc3)c2)[C@@H](O)[C@@H](O)[C@@H]1O` (stereo partly drawn) [Compound 217] gave a Kd of 0.0121 ± 0.0076 µM.

The compound `O=C(COc1cccc(C2O[C@H](CO)[C@@H](O)[C@H](O)[C@@H]2O)c1)C1CCCCC1` (stereo partly drawn) [Compound 218] returned a Kd of 0.0087 ± 0.0014 µM. For `O=C(NCCCOc1cccc(C2O[C@H](CO)[C@@H](O)[C@H](O)[C@@H]2O)c1)c1ccccc1` (stereo partly drawn) [Compound 219], the Kd came out at 0.0163 ± 0.0051 µM. `OC[C@H]1OC(c2cccc(OCc3ccccc3-c3ccccc3)c2)[C@@H](O)[C@@H](O)[C@@H]1O` (stereo partly drawn) [Compound 220] gave a Kd of 0.0166 ± 0.0044 µM. The compound `Cc1nn(-c2ccccc2)nc1COc1cccc(C2O[C@H](CO)[C@@H](O)[C@H](O)[C@@H]2O)c1` (stereo partly drawn) [Compound 221] showed a Kd of 0.0082 ± 0.0005 µM. `OC[C@H]1OC(c2cccc(OCc3ccccc3)c2)[C@@H](O)[C@@H](O)[C@@H]1O` (stereo partly drawn) [Compound 222] came in with a Kd of 0.0407 ± 0.0012 µM. `COC(=O)c1cccc(COc2cccc(C3O[C@H](CO)[C@@H](O)[C@H](O)[C@@H]3O)c2)c1` (stereo partly drawn) [Compound 223] returned a Kd of 0.0232 ± 0.0016 µM. In the case of `CNC(=O)c1ccc(COc2cccc(C3O[C@H](CO)[C@@H](O)[C@H](O)[C@@H]3O)c2)cc1` (stereo partly drawn) [Compound 225], the affinity, expressed as Kd, was 0.0345 ± 0.0123 µM.

With `OC[C@H]1OC(c2cccc(OCc3cc(Cl)cc(Cl)c3)c2)[C@@H](O)[C@@H](O)[C@@H]1O` (stereo partly drawn) [Compound 226], the Kd is 0.0321 ± 0.0089 µM. In the case of `CNC(=O)c1cccc(COc2cccc([C@H]3O[C@H](CO)[C@@H](O)[C@H](O)[C@@H]3O)c2)c1` [Compound 227, N-methyl-3-[[3-[(2R,3S,4R,5S,6R)-3,4,5-trihydroxy-6-(hydroxymethyl)tetrahydropyran-2-yl]phenoxy]methyl]benzamide], the affinity, expressed as Kd, was 0.0371 ± 0.0154 µM. The result for `Cc1cccc(COc2ccc(C3O[C@H](CO)[C@@H](O)[C@H](O)[C@@H]3O)cc2)n1` (stereo partly drawn) [Compound 228] reads 0.0092 ± 4e-05 µM; that for `CCC#CCOc1ccc(C2O[C@H](CO)[C@@H](O)[C@H](O)[C@@H]2O)cc1` (stereo partly drawn) [Compound 229], 0.0331 ± 0.004 µM; that for `N#CCCCOc1ccc(C2O[C@H](CO)[C@@H](O)[C@H](O)[C@@H]2O)cc1` (stereo partly drawn) [Compound 230], 0.0139 ± 0.0036 µM. `CC[C@H](C)COc1ccc(C2O[C@H](CO)[C@@H](O)[C@H](O)[C@@H]2O)cc1` (stereo partly drawn) [Compound 231] registered a Kd of 0.0089 ± 0.0014 µM. `CC(C)CCOc1ccc(C2O[C@H](CO)[C@@H](O)[C@H](O)[C@@H]2O)cc1` (stereo partly drawn) [Compound 232] yielded a Kd of 0.0085 ± 0.0042 µM. As for `COCCCOc1ccc(C2O[C@H](CO)[C@@H](O)[C@H](O)[C@@H]2O)cc1` (stereo partly drawn) [Compound 233], the figure is 0.0103 ± 0.0039 µM; as for `OC[C@H]1OC(c2ccc(OCCCCF)cc2)[C@@H](O)[C@@H](O)[C@@H]1O` (stereo partly drawn) [Compound 234], 0.0114 ± 0.0045 µM; as for `O=C(COc1ccc(C2O[C@H](CO)[C@@H](O)[C@H](O)[C@@H]2O)cc1)C1CC1` (stereo partly drawn) [Compound 235], 0.0141 ± 0.0003 µM.

As for `OC[C@H]1OC(c2ccc(OCC3CCOCC3)cc2)[C@@H](O)[C@@H](O)[C@@H]1O` (stereo partly drawn) [Compound 236], binding was put at a Kd of 0.0115 ± 0.0046 µM.

`OC[C@H]1OC(c2ccc(OCc3ccc(F)cc3)cc2)[C@@H](O)[C@@H](O)[C@@H]1O` (stereo partly drawn) [Compound 237] displayed a Kd of 0.0079 ± 0.0016 µM. Compound `OC[C@H]1OC(c2ccc(OCCc3cccc(F)c3)cc2)[C@@H](O)[C@@H](O)[C@@H]1O` (stereo partly drawn) [Compound 238] had a Kd of 0.0097 µM. As for `COc1ccc(CCOc2ccc(C3O[C@H](CO)[C@@H](O)[C@H](O)[C@@H]3O)cc2)cc1` (stereo partly drawn) [Compound 239], the figure is 0.0077 ± 5e-05 µM. With `OC[C@H]1OC(c2ccc(OCc3cccc4cccnc34)cc2)[C@@H](O)[C@@H](O)[C@@H]1O` (stereo partly drawn) [Compound 240], the Kd is 0.0076 ± 0.0009 µM. In the case of `CC(C)(C)c1ccc(COc2ccc(C3O[C@H](CO)[C@@H](O)[C@H](O)[C@@H]3O)cc2)cc1` (stereo partly drawn) [Compound 241], the Kd worked out at 0.0102 ± 0.0008 µM.

`COc1ccccc1NC(=O)COc1ccc(C2O[C@H](CO)[C@@H](O)[C@H](O)[C@@H]2O)cc1` (stereo partly drawn) [Compound 242] showed a Kd of 0.0215 ± 0.0039 µM. For `COC(=O)CCCOc1ccc(C2O[C@H](CO)[C@@H](O)[C@H](O)[C@@H]2O)cc1` (stereo partly drawn) [Compound 243], the Kd came to 0.0058 µM.

With `OC[C@H]1OC(c2ccc(OCc3ccc4ccccc4c3)cc2)[C@@H](O)[C@@H](O)[C@@H]1O` (stereo partly drawn) [Compound 244], binding was put at a Kd of 0.0233 ± 0.0011 µM.

`OC[C@H]1OC(c2ccc(OCc3ccccc3)cc2)[C@@H](O)[C@@H](O)[C@@H]1O` (stereo partly drawn) [Compound 245] returned a Kd of 0.0228 ± 0.0024 µM. `COC(=O)c1cccc(COc2ccc(C3O[C@H](CO)[C@@H](O)[C@H](O)[C@@H]3O)cc2)c1` (stereo partly drawn) [Compound 246] showed a Kd of 0.0236 ± 0.0055 µM. As for `O=C(O)c1cccc(COc2ccc(C3O[C@H](CO)[C@@H](O)[C@H](O)[C@@H]3O)cc2)c1` (stereo partly drawn) [Compound 247], the figure is 0.032 ± 0.0051 µM. Regarding `CNC(=O)c1ccc(COc2ccc(C3O[C@H](CO)[C@@H](O)[C@H](O)[C@@H]3O)cc2)cc1` (stereo partly drawn) [Compound 249], the Kd was determined as 0.0196 ± 0.0102 µM.

The record behind these values is patent US20130261077A1 (priority 2012, published 2013).
